Laboratory results reported in patent US10392368B2, “Pyrazolo and triazolo bicyclic compounds as JAK kinase inhibitors” (THERAVANCE BIOPHARMA R&D IP, LLC, priority 2017, dated 2019).
Where two headings read alike, the source gives them in different places.

Key:
[1] = target: T1, JAK1 (Homo sapiens, UniProt P23458); assay: Biochemical JAK1 kinase assay (LanthaScreen); settings: for Ki: read-out: JAK 1 (pKi) (converted)
T1 construct: GST; purchased Life Technologies
Summary of the method: (§1)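 Recombinant GST-tagged JAK enzymes with GFP-STAT1 peptide substrate in 50 mM HEPES pH 7.5, 10 mM MgCl2, 1 mM EGTA, 0.01% Brij-35; compounds pre-incubated 1 h, then ATP added, 1 h reaction at ambient temperature. TR-FRET (Tb-anti-pSTAT1 pTyr701, 520/495 nm) after EDTA stop; IC50 by 4-parameter fit, converted to pKi via Cheng-Prusoff.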

[2] = tested on: IL-2 stimulated pSTAT5 in Tall-1 T cells; assay: Cellular JAK3 potency assay: inhibition of IL-2 stimulated pSTAT5 in Tall-1 T cells; assay type: cell-based, human; settings: for IC50: Homo sapiens, read-out: Tall-1 (pIC50) (converted)
Summary of the method: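 Tall-1 human T cells (45,000/well) in phenol red-free DMEM with 10% FBS were preincubated with compound 1 h at 37 °C, then stimulated with IL-2 (final 300 ng/ml) for 30 min. Lysate pSTAT5 read by AlphaLisa; IC50 from inhibition curves, reported as pIC50 (mean±SD).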

[3] = target: T2, JAK3 (Homo sapiens, UniProt P52333); assay: Biochemical JAK3 kinase assay (LanthaScreen); parameters: GST; purchased Life Technologies; settings: for Ki: read-out: JAK 3 (pKi) (converted)
T2 sequence (P52333 1-1124): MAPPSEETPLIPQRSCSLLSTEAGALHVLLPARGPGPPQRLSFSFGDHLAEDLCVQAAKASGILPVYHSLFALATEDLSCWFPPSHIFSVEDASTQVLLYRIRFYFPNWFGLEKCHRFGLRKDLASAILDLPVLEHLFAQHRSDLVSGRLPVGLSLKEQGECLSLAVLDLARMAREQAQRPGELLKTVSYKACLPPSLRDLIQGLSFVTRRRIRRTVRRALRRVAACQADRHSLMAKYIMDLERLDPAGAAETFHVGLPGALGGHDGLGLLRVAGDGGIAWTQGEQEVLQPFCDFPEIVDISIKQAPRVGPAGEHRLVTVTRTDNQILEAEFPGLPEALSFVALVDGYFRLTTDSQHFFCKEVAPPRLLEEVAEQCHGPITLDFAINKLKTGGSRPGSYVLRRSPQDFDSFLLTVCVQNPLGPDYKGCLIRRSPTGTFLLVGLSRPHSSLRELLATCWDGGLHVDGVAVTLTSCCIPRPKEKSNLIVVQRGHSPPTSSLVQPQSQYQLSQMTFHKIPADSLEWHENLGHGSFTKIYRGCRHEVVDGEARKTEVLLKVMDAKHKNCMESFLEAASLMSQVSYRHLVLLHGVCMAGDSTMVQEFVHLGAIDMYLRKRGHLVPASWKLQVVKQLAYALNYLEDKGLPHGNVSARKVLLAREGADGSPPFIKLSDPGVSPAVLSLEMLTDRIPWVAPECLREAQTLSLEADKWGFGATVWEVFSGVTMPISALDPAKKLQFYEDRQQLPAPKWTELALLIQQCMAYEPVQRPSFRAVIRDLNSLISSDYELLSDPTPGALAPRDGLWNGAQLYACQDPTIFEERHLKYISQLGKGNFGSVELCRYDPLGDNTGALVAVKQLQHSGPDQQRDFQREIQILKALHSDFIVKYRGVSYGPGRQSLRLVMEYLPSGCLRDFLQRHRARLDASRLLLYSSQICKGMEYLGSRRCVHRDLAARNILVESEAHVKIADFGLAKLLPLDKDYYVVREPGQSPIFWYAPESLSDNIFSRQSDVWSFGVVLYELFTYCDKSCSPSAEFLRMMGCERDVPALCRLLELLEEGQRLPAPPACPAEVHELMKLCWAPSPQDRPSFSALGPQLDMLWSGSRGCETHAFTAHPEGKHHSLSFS
Summary of the method: as §1

[4] = TALL-1, IL-2 stimulated pSTAT5, Tall-1 T cells
[5] = selectivity JAK3 over JAK1, difference of pKi
[6] = IL-2 stimulated pSTAT5 in Tall-1 T cells
[7] = selectivity: difference of pKi JAK3 and pKi JAK1
[8] = IL-2 stimulated pSTAT5, Tall-1 T cells
[9] = TALL-1, IL-2 stimulated pSTAT5 in Tall-1 T cells

T1 sequence (P23458 whole entry): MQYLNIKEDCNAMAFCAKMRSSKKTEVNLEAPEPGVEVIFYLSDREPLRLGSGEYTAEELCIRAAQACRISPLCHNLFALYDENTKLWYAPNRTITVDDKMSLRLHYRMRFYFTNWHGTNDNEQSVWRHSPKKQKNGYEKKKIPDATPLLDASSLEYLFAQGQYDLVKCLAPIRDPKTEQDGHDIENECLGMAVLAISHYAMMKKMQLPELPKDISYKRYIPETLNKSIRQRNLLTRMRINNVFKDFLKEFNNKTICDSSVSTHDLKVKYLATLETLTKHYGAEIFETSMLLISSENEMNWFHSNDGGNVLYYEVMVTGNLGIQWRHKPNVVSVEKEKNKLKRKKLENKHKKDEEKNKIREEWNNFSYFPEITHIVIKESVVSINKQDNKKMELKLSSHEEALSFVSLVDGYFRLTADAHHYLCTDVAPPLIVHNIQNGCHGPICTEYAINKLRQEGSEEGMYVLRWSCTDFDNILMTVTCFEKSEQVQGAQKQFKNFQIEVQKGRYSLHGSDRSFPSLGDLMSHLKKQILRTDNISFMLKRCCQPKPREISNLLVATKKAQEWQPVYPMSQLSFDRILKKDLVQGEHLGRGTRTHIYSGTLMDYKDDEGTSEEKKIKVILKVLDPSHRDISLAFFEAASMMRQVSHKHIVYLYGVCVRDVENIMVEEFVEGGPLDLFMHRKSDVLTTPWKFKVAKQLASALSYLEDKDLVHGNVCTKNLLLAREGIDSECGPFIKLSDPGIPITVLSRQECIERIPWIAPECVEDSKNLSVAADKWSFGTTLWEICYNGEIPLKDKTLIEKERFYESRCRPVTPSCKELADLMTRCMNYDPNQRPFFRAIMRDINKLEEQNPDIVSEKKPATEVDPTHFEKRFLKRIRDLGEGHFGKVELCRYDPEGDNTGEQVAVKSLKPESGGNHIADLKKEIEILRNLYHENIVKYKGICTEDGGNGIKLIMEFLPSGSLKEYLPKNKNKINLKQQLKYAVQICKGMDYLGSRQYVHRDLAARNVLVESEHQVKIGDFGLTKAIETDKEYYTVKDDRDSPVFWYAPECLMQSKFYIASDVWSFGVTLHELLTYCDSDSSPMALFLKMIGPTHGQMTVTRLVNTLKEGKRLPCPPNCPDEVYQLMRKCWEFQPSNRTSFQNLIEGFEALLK

| Structure (SMILES) | Ki [1] | IC50 [2, 4] | Ki [3] | JAK3 (pKi)-JAK1 (pKi) [3, 5] | JAK 1 (pKi) [1] | Tall-1 (pIC50) [2, 6] | JAK 3 (pKi) [3] | JAK3 (pKi)-JAK1 (pKi) [3, 7] | Tall-1 (pIC50) [2, 8] | IC50 [2, 9] |
| --- | --- | --- | --- | --- | --- | --- | --- | --- | --- | --- |
| CN(C)C/C=C/C(=O)N1CC[C@@H](Sc2cc(-c3ccc(O)cc3)cc3[nH]ncc23)C1 [Compound 12-3] | 10 to 100 nM | 200 to 1000 nM | 0.1 to 1 nM | B (a value of 2.3 to 3) |  |  |  |  |  |  |
| CN(C)C/C=C/C(=O)N1CCC[C@H](Sc2cc(-c3ccc(O)cc3)cc3[nH]ncc23)C1 [Compound 12-7] | 10 to 100 nM | 200 to 1000 nM | 0.1 to 1 nM | C (a value of 1.8 to 2.3) |  |  |  |  |  |  |
| CN(C)C/C=C/C(=O)N1CC(C)(Oc2cc(-c3ccc(O)cc3)cc3[nH]ncc23)C1 [Compound 5-11] |  |  |  |  | E (a pKi value of 7 or below (Ki of 100 nM or above)) | B (a pIC50 value between 6.7 (included) and 7.5 (IC50 between 200 nM and 32 nM)) | B (a pKi value between 9 and 10 (Ki between 1 nM and 0.1 nM)) | A (a value of 3 or above) |  |  |
| C=CC(=O)N1CCC(C)(Oc2cc(-c3ccc(O)c(Cl)c3)cc3[nH]ncc23)CC1 [Compound 6-5] |  |  |  | A (a value of 3 or above) | E (a pKi value of 7 or below (Ki of 100 nM or above)) |  | B (a pKi value between 9 and 10 (Ki between 1 nM and 0.1 nM)) |  | A (a pIC50 value≥7.5 (IC50≤32 nM)) |  |
| C=CC(=O)N1CCC(Oc2cc(-c3ccc(O)cc3)nc3[nH]ncc23)CC1 [Compound 6-11] | > 100 nM | 31.6 to 200 nM | < 0.1 nM | A (a value of 3 or above) |  |  |  |  |  |  |
| C=CC(=O)N1C[C@@H](Oc2cc(-c3ccc(O)cc3)cc3[nH]ncc23)C[C@@H]1C [Compound 1-12] | > 100 nM |  | 0.1 to 1 nM |  |  |  |  | A (a value of 3 or above) |  | 31.6 to 200 nM |
| CN(C)C/C=C/C(=O)N1CCC(COc2nc(-c3ccc(O)c(Cl)c3)cc3[nH]ncc23)CC1 [Compound 14-10] |  |  |  | C (a value of 1.8 to 2.3) | D (a pKi value between 7 and 8 (Ki between 100 nM and 10 nM)) |  | B (a pKi value between 9 and 10 (Ki between 1 nM and 0.1 nM)) |  | C (a pIC50 value between 6 and 6.7 (IC50 between 1 μM and 200 nM)) |  |
| C#CC(=O)N1CC(COc2cc(-c3ccc(O)cc3)cc3[nH]ncc23)C1 [Compound 3-84] | > 100 nM |  | < 0.1 nM |  |  |  |  | A (a value of 3 or above) |  | 31.6 to 200 nM |
| CN(C)C/C=C/C(=O)N1CCC(COc2cc(-c3ccc(O)c(F)c3)cc3[nH]ncc23)CC1 [Compound 14-4] |  |  |  | B (a value of 2.3 to 3) | D (a pKi value between 7 and 8 (Ki between 100 nM and 10 nM)) |  | B (a pKi value between 9 and 10 (Ki between 1 nM and 0.1 nM)) |  | B (a pIC50 value between 6.7 (included) and 7.5 (IC50 between 200 nM and 32 nM)) |  |
| Cc1n[nH]c2cc(-c3ccc(O)cc3)cc(OCC3CN(C(=O)/C=C/CN(C)C)C3)c12 [Compound 18-4] | 10 to 100 nM | 31.6 to 200 nM | < 0.1 nM | B (a value of 2.3 to 3) |  |  |  |  |  |  |
| C=CC(=O)N1CCC[C@H](Oc2nc(-c3ccc(O)c(Cl)c3)cc3[nH]ncc23)C1 [Compound 8-10] |  |  |  | A (a value of 3 or above) | D (a pKi value between 7 and 8 (Ki between 100 nM and 10 nM)) |  | A (a pKi value≥10 (Ki≤0.1 nM)) |  | A (a pIC50 value≥7.5 (IC50≤32 nM)) |  |
| C=CC(=O)N1CC[C@H](Oc2nc(-c3ccc(O)cc3)nc3[nH]nc(C(F)F)c23)C1 [Compound 1-25] | > 100 nM |  | 0.1 to 1 nM |  |  |  |  | A (a value of 3 or above) |  | 31.6 to 200 nM |
| C=CC(=O)N1CC(CNc2cc(-c3ccc(O)cc3)cc3[nH]ncc23)C1 [Compound 4-3] |  |  |  |  | E (a pKi value of 7 or below (Ki of 100 nM or above)) | B (a pIC50 value between 6.7 (included) and 7.5 (IC50 between 200 nM and 32 nM)) | B (a pKi value between 9 and 10 (Ki between 1 nM and 0.1 nM)) | B (a value of 2.3 to 3) |  |  |
| C=CC(=O)N1CC[C@@H]1COc1cc(-c2ccc(O)cc2)cc2[nH]ncc12 [Compound 12-23] | > 100 nM | 31.6 to 200 nM | 0.1 to 1 nM | A (a value of 3 or above) |  |  |  |  |  |  |
| C=CC(=O)N1C2CCC1CC(Oc1nc(-c3ccc(O)cc3)nc3[nH]ncc13)C2 (stereo not drawn) [Compound 9-11] |  |  |  | A (a value of 3 or above) | E (a pKi value of 7 or below (Ki of 100 nM or above)) |  | A (a pKi value≥10 (Ki≤0.1 nM)) |  | B (a pIC50 value between 6.7 (included) and 7.5 (IC50 between 200 nM and 32 nM)) |  |
| C=CC(=O)N1CC[C@H](COc2nc(-c3ccc(O)c(Cl)c3)cc3[nH]ncc23)C1 [Compound 2-14] |  |  |  |  | E (a pKi value of 7 or below (Ki of 100 nM or above)) | A (a pIC50 value≥7.5 (IC50≤32 nM)) | A (a pKi value≥10 (Ki≤0.1 nM)) | A (a value of 3 or above) |  |  |
| CN(C)C/C=C/C(=O)N1CC[C@H](COc2nc(-c3ccc(O)c(F)c3)cc3[nH]ncc23)C1 [Compound 2-13] |  |  |  |  | E (a pKi value of 7 or below (Ki of 100 nM or above)) | C (a pIC50 value between 6 and 6.7 (IC50 between 1 μM and 200 nM)) | B (a pKi value between 9 and 10 (Ki between 1 nM and 0.1 nM)) | B (a value of 2.3 to 3) |  |  |
| CN(C)C/C=C/C(=O)N1CC(COc2cc(-c3ccc(O)c(F)c3F)cc3[nH]ncc23)C1 [Compound 3-82] | 10 to 100 nM |  | < 0.1 nM |  |  |  |  | B (a value of 2.3 to 3) |  | < 31.6 nM |
| C=CC(=O)N1CCC(Oc2cc(-c3ccc(O)cc3)cc3[nH]ncc23)C(F)(F)C1 (stereo not drawn) [Compound 6-8] | 10 to 100 nM | < 31.6 nM | < 0.1 nM | B (a value of 2.3 to 3) |  |  |  |  |  |  |
| CN(C)C/C=C/C(=O)N1CC[C@@H]1COc1cc(-c2ccc(O)cc2)cc2[nH]ncc12 [Compound 12-22] | > 100 nM | 200 to 1000 nM | 0.1 to 1 nM | A (a value of 3 or above) |  |  |  |  |  |  |
| O=C(/C=C/CN1CCSCC1)N1CC(COc2cc(-c3ccc(O)cc3)cc3[nH]ncc23)C1 [Compound 3-130] | > 100 nM |  | 0.1 to 1 nM |  |  |  |  | A (a value of 3 or above) |  | 31.6 to 200 nM |
| CN(C)C/C=C/C(=O)N1CC(Oc2cc(-c3ccc(O)cc3)cc3[nH]ncc23)(C2CC2)C1 [Compound 5-13] |  |  |  |  | E (a pKi value of 7 or below (Ki of 100 nM or above)) | B (a pIC50 value between 6.7 (included) and 7.5 (IC50 between 200 nM and 32 nM)) | B (a pKi value between 9 and 10 (Ki between 1 nM and 0.1 nM)) | B (a value of 2.3 to 3) |  |  |
| C=CC(=O)N1CC(C(C)(C)Oc2cc(-c3ccc(O)c(F)c3)cc3[nH]ncc23)C1 [Compound 3-28] |  |  |  |  | E (a pKi value of 7 or below (Ki of 100 nM or above)) | A (a pIC50 value≥7.5 (IC50≤32 nM)) | A (a pKi value≥10 (Ki≤0.1 nM)) | A (a value of 3 or above) |  |  |
| C=CC(=O)N1CC(F)(COc2cc(-c3ccc(O)cc3)cc3[nH]ncc23)C1 [Compound 3-6] | 10 to 100 nM |  | < 0.1 nM |  |  |  |  | A (a value of 3 or above) |  | < 31.6 nM |
